# Measurements reported in publication PMC9248008, “Mechanistic Studies of a Skatole-Forming Glycyl Radical Enzyme Suggest Reaction Initiation via Hydrogen Atom Transfer” (Journal of the American Chemical Society, 2022).
# Assays:
# [1] = target: T1, Ou IAD (indoleacetate decarboxylase from Olsenella uli) (Olsenella uli, UniProt E1QXZ2); assay: inhibition in assays with I3A; format: biochemical; settings: partial competitive inhibitor versus I3A, not consumed
# T1 construct: gene Olsu_0124; purified; glycyl radical installed by Ou IAD-AE with SAM; catalytic Gly853 and Cys500; tags and host only in supplement
# T1 sequence (E1QXZ2 entry or part of it): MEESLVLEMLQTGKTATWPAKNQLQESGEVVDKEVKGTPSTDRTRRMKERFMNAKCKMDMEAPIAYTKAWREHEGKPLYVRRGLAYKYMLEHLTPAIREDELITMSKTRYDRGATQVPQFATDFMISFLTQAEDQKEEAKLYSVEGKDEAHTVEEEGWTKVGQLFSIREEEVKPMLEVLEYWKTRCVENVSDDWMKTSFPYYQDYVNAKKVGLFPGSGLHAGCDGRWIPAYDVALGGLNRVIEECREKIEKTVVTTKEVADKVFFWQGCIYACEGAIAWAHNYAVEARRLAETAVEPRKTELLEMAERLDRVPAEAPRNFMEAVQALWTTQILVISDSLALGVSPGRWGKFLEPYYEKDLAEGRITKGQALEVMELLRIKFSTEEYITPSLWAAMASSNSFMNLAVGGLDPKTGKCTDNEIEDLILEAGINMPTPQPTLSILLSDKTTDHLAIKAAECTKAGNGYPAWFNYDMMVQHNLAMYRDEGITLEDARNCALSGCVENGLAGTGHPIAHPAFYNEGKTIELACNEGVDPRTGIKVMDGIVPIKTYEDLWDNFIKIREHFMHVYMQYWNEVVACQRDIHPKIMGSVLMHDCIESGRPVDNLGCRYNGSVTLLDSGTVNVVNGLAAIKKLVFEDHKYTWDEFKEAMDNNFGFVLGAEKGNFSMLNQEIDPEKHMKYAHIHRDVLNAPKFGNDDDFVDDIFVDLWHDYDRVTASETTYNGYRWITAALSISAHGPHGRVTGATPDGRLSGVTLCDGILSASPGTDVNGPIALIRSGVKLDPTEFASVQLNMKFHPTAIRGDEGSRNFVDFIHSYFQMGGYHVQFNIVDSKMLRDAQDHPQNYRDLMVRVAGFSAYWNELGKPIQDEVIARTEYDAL
# [2] = target: T2, Cs HPAD (hydroxyphenylacetate decarboxylase) (Clostridium scatologenes, UniProt Q38HX4); assay: p-cresol formation, deuterium incorporation in D2O; format: biochemical; settings: mere turnover
# T2 construct: gene csdB; glycyl radical enzyme; residues Cys503, Glu505, Glu637; with 4-hydroxyphenylacetate decarboxylase small subunit
# T2 sequence (Q38HX3 whole entry): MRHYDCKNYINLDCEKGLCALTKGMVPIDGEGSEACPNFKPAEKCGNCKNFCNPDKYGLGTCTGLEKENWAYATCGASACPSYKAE
# T2 sequence (Q38HX4 whole entry): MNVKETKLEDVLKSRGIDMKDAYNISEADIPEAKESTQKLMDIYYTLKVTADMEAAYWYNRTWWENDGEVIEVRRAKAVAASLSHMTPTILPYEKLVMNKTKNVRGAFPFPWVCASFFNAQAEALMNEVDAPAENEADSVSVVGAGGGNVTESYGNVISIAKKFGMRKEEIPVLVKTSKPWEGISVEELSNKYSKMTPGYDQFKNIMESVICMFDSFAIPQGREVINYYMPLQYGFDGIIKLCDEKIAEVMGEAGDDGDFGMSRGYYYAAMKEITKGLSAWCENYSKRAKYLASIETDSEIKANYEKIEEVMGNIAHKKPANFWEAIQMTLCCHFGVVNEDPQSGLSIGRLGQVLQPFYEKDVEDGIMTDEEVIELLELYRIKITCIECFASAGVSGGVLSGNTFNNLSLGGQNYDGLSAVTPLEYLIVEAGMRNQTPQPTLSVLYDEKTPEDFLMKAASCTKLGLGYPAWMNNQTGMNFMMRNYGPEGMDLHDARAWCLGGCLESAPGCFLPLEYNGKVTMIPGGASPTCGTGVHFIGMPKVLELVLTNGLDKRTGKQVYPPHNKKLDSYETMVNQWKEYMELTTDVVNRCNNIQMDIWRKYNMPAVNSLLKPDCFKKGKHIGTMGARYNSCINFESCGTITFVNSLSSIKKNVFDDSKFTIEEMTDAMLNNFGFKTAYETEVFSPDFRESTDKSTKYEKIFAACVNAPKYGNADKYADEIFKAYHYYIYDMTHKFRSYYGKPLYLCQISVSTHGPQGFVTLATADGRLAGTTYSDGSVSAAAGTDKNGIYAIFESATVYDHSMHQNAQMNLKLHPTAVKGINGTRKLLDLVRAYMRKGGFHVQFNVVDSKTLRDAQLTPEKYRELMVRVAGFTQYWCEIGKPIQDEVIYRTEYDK
smiles,measurement,setting,value
CC(C(=O)O)c1c[nH]c2ccccc12 (racemic) [α-Me-I3A],inhibition in assays with I3A,[1]; racemic,Both compounds are partial competitive inhibitors in assays with I3A
"O=C(O)Cc1ccc(O)cc1 [HPA, p-hydroxyphenylacetate]","p-cresol formation, deuterium incorporation in D2O",[2],"When HPA and Cs HPAD were incubated with D2O, only the expected D1-p-cresol"
"CC(C)(C(=O)O)c1c[nH]c2ccccc12 [α,α-Me2-I3A]",inhibition in assays with I3A,[1],Both compounds are partial competitive inhibitors in assays with I3A
